In PMC4020785 (PLoS ONE, 2014):

Experiments:
HIV LTR in J-Lat clones = assay: LTR-driven GFP expression in J-Lat clones; format: cell-based, HIV-1; conditions: J-Lat clones 9.2 and 10.6, 48 h, all concentrations tested
Protocol: J-Lat cells are Jurkat cells stably transfected by an HIV genome whose nef sequence was replaced by the GFP gene. Also, a frameshift mutation was introduced to the env gene to prevent virus spread. […] To test the ISDs, a million cells of each clone were treated with different concentrations of each compound (ING-A, ING-B, ING-C, prostratin and PMA) at 37°C. TNF-α (10 ng/mL) was used as a positive control. After 48 h, cells were collected, washed with saline solution (PBS) and GFP expression was evaluated in a FACScalibur cytometer (BD Biosciences). Data were analyzed with Cell Quest Pro software (BD Biosciences).

[1] = tested on: CD4, CXCR4, CCR5 on CD4+ T lymphocytes; assay: Surface CD4, CXCR4, CCR5 expression in CD4+ T lymphocytes (cytometry); format: cell-based, human; conditions: CD4+ lymphocytes, 1 µM
Protocol: (§1) For analysis of cell surface marker expression, MT-4 cells and bead-selected CD4+ T cells (described above) were incubated with 1 µM of each compound (ING-A, ING-B, ING-C, prostratin, PMA, and bryostatin-1) at 37°C for 48 h. After incubation, cells were washed with PBS and incubated for 20 min at room temperature with antibodies against CD3-Brilliant Violet 510 (clone OKT3 – Biolegend), CD4-Qdot 655 (clone 53.5 - Life Technologies), CXCR4-PE (clone 1265 - BD Biosciences), CCR5-PerCP-Cy5.5 (clone 3A9 - BD Biosciences), CD69-Pacific Blue (clone FN50 – BD Biosciences), CD38-FITC (clone AT-1 – Stem Cell Technologies), CD25-APC (clone 2A3 – BD Biosciences), HLA-DR-Qdot 605 (clone TÜ36 – Life Technologies) and a marker for annexin V-FITC (Life Technologies). Cells (both MT-4 cells and CD4+ T cells) were initially incubated for 2 h with different PKC inhibitors (GÖ6983, GÖ6976 or RO-31-8220). Then, ING-B, prostratin or PMA at 1 µM or TNF-α at 10 ng/mL were added to each condition and incubation was carried out for 24 h at 37°C. Similar protocol was used for the analysis of PKC inhibitors in J-Lat clones 9.2 and 10.6. GFP expression, surface marker expression and activation marker were evaluated on a LSR Fortessa cytometer (BD Biosciences). Data analysis was performed using FlowJo software (Tree Star).

[2] = tested on: CD4, CXCR4, CCR5 on MT-4 cells; assay: Surface CD4, CXCR4, CCR5 expression in MT-4 cells (cytometry); format: cell-based; conditions: 1 µM
Protocol: as §1

CD4+ T lymphocytes = assay: Activation markers CD25, CD38, HLA-DR, CD69 on CD4+ T lymphocytes (cytometry); format: cell-based, human; conditions: 1 µM
Protocol: For analysis of cell surface marker expression, MT-4 cells and bead-selected CD4+ T cells (described above) were incubated with 1 µM of each compound (ING-A, ING-B, ING-C, prostratin, PMA, and bryostatin-1) at 37°C for 48 h. […] Cells (both MT-4 cells and CD4+ T cells) were initially incubated for 2 h with different PKC inhibitors (GÖ6983, GÖ6976 or RO-31-8220). Then, ING-B, prostratin or PMA at 1 µM or TNF-α at 10 ng/mL were added to each condition and incubation was carried out for 24 h at 37°C. […] GFP expression, surface marker expression and activation marker were evaluated on a LSR Fortessa cytometer (BD Biosciences). Data analysis was performed using FlowJo software (Tree Star).

PKC [3] = assay: PKC inhibitors on diterpene-induced GFP expression in J-Lat clones 9.2 and 10.6; format: cell-based
Protocol: as §1

PKC [4] = assay: PKC inhibitors on ING-B-driven receptor downregulation in CD4+ T lymphocytes; format: cell-based, human; conditions: 0.1 µM inhibitor in the presence of 1 µM ING-B
Protocol: as §1

PKC [5] = assay: PKC inhibitors on ING-B-driven receptor downregulation in MT-4 cells; format: cell-based; conditions: 0.1 µM inhibitor, then 1 µM ING-B 24 h
Protocol: as §1

HIV-1 subtype B and C = assay: Inhibition of HIV-1 subtype B and C replication, summary over MT-4 cells and human PBMCs; format: cell-based; conditions: Human immunodeficiency virus 1, PBMC, MT-4 and human PBMCs
Protocol: (§2) Human PMBCs were incubated with 100 U recombinant IL-2 (Sigma-Aldrich) and 5 µg/mL phytohemagglutinin-P (PHA-P) (Difco) for 5 days at 37°C. MT-4 cells (1×10^6) or treated PBMCs (1.2×10^8) were infected with HIV-1 clone NL-4.3 or ZM247Fv-1 (MOI of 0.001) by spinoculation (1200 g at room temperature for 2 h). Uninfected cells were used as negative control and were also subjected to the spinoculation process. After spinoculation, supernatants were discarded and cells were resuspended in 10 mL of R10. Cells from each condition were then added to wells (96-well plate) containing serial dilutions of each ISD. For MT-4 cells, each dilution was done in sextuplicates and, for PBMCs, in triplicates. Cells were also incubated with different concentrations of ZDV as positive control. After 5 days in culture, Cell Titer Blue was added to each well and cells were incubated for additional 24 h. The median effective concentration for each drug is defined as EC50. In parallel with the infectivity assay, the same cell types were treated with different concentrations of drugs to determine their cytotoxicity, following the protocol described above. Drug concentration that results in a 50% decrease in viable cells is defined as the CC50 for each compound. EC50 was calculated according to Spearman-Karber and therapeutic index was defined by the ratio between CC50 and EC50 [55].

[6] = tested on: HIV-1 clone ZM247Fv-1 (subtype C); assay: HIV-1 ZM247Fv-1 (subtype C) infection of human PBMCs, Cell Titer Blue readout; format: cell-based; conditions: Human immunodeficiency virus 1, PBMC
Protocol: as §2
(§3) All statistical analyses were performed using program GraphPism version 6.0. Titrations for TCID50 infectivity were calculated by the Spearman-Karber method. Dose response curves to ISDs with HIV-1 subtype B and C were done using non-linear regression and were fit to the Hill equation.

[7] = tested on: HIV-1 clone NL4.3 (subtype B); assay: HIV-1 NL4.3 (subtype B) infection of MT-4 cells, Cell Titer Blue readout; format: cell-based; conditions: Human immunodeficiency virus 1, MT4; MT-4 cells, Subtype B (X4); value estimated by extrapolation; read-out: EC50
Protocol: as §2, §3

[8] = tested on: HIV-1 clone NL4.3 (subtype B); assay: HIV-1 NL4.3 (subtype B) infection of human PBMCs, Cell Titer Blue readout; format: cell-based; conditions: Human immunodeficiency virus 1; Human PBMC, Subtype B (X4); read-out: EC50
Protocol: as §2, §3

[9] = tested on: HIV-1 clone ZM247Fv-1 (subtype C); assay: HIV-1 ZM247Fv-1 (subtype C) infection of MT-4 cells, Cell Titer Blue readout; format: cell-based; conditions: Human immunodeficiency virus 1, MT4
Protocol: as §2, §3

ACH-2 cells = assay: gag p24 production in ACH-2 cells (ELISA); format: cell-based, HIV-1; conditions: ACH-2, 1 µM, 48 h
Protocol: (§4) ACH-2 and J1.1 are clonal cell lines derived from CEM [52] and Jurkat cells, respectively, after infection with HIV-1. U1 cells were derived from the human promonocyte cell line U937 and chronically infected with HIV-1 [54]. Each cell line (1×10^6 cells) was incubated in the presence of 1 µM of diterpenes (ING-A, ING-B, ING-C, prostratin and PMA) or 10 ng/mL TNF-α for 48 h at 37°C. After incubation, cells were centrifuged and supernatants were collected for the quantitation of gag p24 antigen by ELISA, following the protocol described by the manufacturer (Perkin Elmer).

[10] = tested on: HIV-1 p24 in J-Lat clones; assay: HIV-1 p24 production in J-Lat clones (ELISA); format: cell-based
Protocol: as §4
To assess whether the GFP expression levels induced by ISDs in J-Lats led to viral production, all five clones were stimulated with 1 µM of each compound for 48 h and production of HIV-1 p24 was measured in the culture supernatant by ELISA. Levels of p24 were proportional to GFP expression in clones 6.3 and 9.2, whereas levels in clone 8.4 were lower when compared to GFP (Figure 3A).

HIV-1 latency = tested on: HIV-1 latency; set-up: method as in PMID 15284245; conditions: statement in discussion, reference given only in the next sentence; cited from earlier work

CCCCCCCCCCCCCC(=O)O[C@@H]1[C@@H](C)[C@@]2(O)[C@@H](C=C(CO)C[C@]3(O)C(=O)C(C)=C[C@@H]23)[C@@H]2C(C)(C)[C@]12OC(C)=O [PMA, phorbol 13-myristate acetate]
levels of GFP expression, rank order (HIV LTR in J-Lat clones): PMA = ING-B > ING-A = ING-C > prostratin
levels of CD4 expression [1]: severely diminished
surface CD4 and CXCR4 expression, of that in the control condition [2]: ≥ 50%
CD25 surface expression (CD4+ T lymphocytes): upregulated
CD69 and CD38 surface expression (CD4+ T lymphocytes): more intensely
HLA-DR surface expression (CD4+ T lymphocytes): upregulated by ISDs and PMA

Cn1cc(C2=C(c3cn(CCCSC(=N)N)c4ccccc34)C(=O)NC2=O)c2ccccc21 [RO-31-8220]
reduction of ING-B-driven GFP expression (PKC [3]; discussion statement): 75%
GFP expression reduced to (PKC [3]; pre-incubation with 0.1 µM inhibitor, response to ISDs, prostratin and PMA): 75%
overexpression of CD4 and CCR5 compared to untreated control (PKC [4]): up to 2.5 fold
effect on ING-B-driven receptor downregulation (PKC [5]): not able to downregulate the expression of CD4 and CXCR4

Cc1cn([C@H]2C[C@H](N=[N+]=[N-])[C@@H](CO)O2)c(=O)[nH]c1=O [ZDV, Zidovudine, reference compound]
EC50 (HIV-1 subtype B and C): 4 to 8 nM
EC50 [6]: 8 nM
EC50 [7]: 4 nM
EC50 [8]: 7 nM
EC50 [9]: 5 nM

CCC/C=C/C=C/C(=O)O[C@H]1/C(=C/C(=O)OC)C[C@H]2C[C@H]([C@@H](C)O)OC(=O)C[C@H](O)C[C@@H]3C[C@H](OC(C)=O)C(C)(C)[C@](O)(C[C@@H]4C/C(=C/C(=O)OC)C[C@H](/C=C/C(C)(C)[C@]1(O)O2)O4)O3 [bryostatin-1]
downregulation of surface CCR5 [1]: less efficient in downregulating surface expression of CCR5
downregulation of surface CD4 and CXCR4 (in words) [2]: not by prostratin and bryostatin-1

CC(=O)O[C@@]12C[C@@H](C)[C@@]3(O)[C@@H](C=C(CO)C[C@]4(O)C(=O)C(C)=C[C@@H]34)[C@@H]1C2(C)C [prostratin, 12-deoxyphorbol 13-acetate]
p24 production (in words) (ACH-2 cells): low levels of p24 production
levels of GFP expression, rank order (HIV LTR in J-Lat clones): PMA = ING-B > ING-A = ING-C > prostratin
downregulation of surface CCR5 [1]: less efficient in downregulating surface expression of CCR5
p24 in culture supernatant ([10]; J-Lat clone 15.4, 1 µM, 48 h): does not appear to work
HIV-LTR activation, overall comparison ([10]; J-Lat clones, GFP and p24 taken together): the less effective compound among all tested
concentration required to reactivate HIV-1 latency (HIV-1 latency): higher than 2 µM
downregulation of surface CD4 and CXCR4 (in words) [2]: not by prostratin and bryostatin-1
CD25 surface expression (CD4+ T lymphocytes): upregulated
HLA-DR surface expression (CD4+ T lymphocytes): not by prostratin
